Reference: the OPERA property sets (Mansouri et al. 2018)

Conditions: not given
With `Cc1cc2c(cc1Nc1ccccc1)C1(OC(=O)c3ccccc31)c1ccc(N(C)C3CCCCC3)cc1O2` (stereo not given) the ready biodegradability was “not readily biodegradable”. `CC(C)(C)C(C)(C)O` gave a boiling point of 131 °C and a melting point of 17 °C. For `FC(F)(F)Cl`, the boiling point was -81.4 °C, the log10 Henry constant (atm·m³/mol) was 0.14 and the log10 vapour pressure (mmHg) was 4.33. The melting point was -181 °C. In the case of `CCCCC(C)(C)C`, the log10 biodegradation half-life (days) is reported as 0.602, the log10 vapour pressure (mmHg) is reported as 1.53 and the melting point is reported as -121 °C. `Cc1ccc(CCN)cc1` gave a boiling point of 214 °C. With `CCOC(=O)COc1ccc2c(=O)cc(-c3ccccc3)oc2c1` the melting point was 124 °C. `CN1CCC(CN2c3ccccc3Sc3ccccc32)C1` (stereo not given) gave a melting point of 87.5 °C. In the case of `Clc1ncccn1`, the melting point is reported as 67 °C. With `CCC(CO)(CO)CO` the ready biodegradability was “not readily biodegradable”. For `C#CC(C)OC(=O)Nc1cccc(Cl)c1` (stereo not given), the log10 Koc (L/kg) was 2.21, the log10 vapour pressure (mmHg) was -4.8 and the melting point was 45.5 °C. `FCC(F)F` showed a boiling point of 5 °C and a melting point of -84 °C. For `CCCCCCCCCCCCCCCC(=O)OCCC`, the melting point was 20.4 °C. For `CCCC(N)=O`, the boiling point was 216 °C, the log10 vapour pressure (mmHg) was -2.41 and the melting point was 115 °C. `CCCl` showed a boiling point of 12.3 °C, a log10 Henry constant (atm·m³/mol) of -1.95 and a log10 vapour pressure (mmHg) of 3. For the same compound, the melting point was -139 °C and the ready biodegradability was “not readily biodegradable”. Work on `COc1ccc(C(=O)NCc2cccnc2)cc1C(=O)NCc1cccnc1` yielded a melting point of 124 °C. With `CC1(C)[C@@H]2CC[C@@](C)(C2)[C@@H]1O` the melting point was 45.8 °C. `CC(C)=CC(=O)Cl` gave a boiling point of 146 °C. With `C/C=C(\C)c1ccccc1` the melting point was -23.5 °C. `COc1ccc(C(=O)c2csc(S(N)(=O)=O)c2)cc1` showed a melting point of 174 °C. With `CCC(C)(C)C(=O)O[C@H]1C[C@@H](C)C=C2C=C[C@H](C)[C@H](CC[C@@H]3C[C@@H](O)CC(=O)O3)[C@H]21` the melting point was 136 °C. `COc1ccccc1Oc1ccccc1` showed a boiling point of 288 °C and a melting point of 79 °C. `CCc1nn(C)c(C(=O)NCc2ccc(C(C)(C)C)cc2)c1Cl` showed a melting point of 61.5 °C. For `CC1CC(C)CC(C)C1` (mixture of isomers), the boiling point was 141 °C. With `NCc1ccc(Br)cc1` the boiling point was 250 °C and the melting point was 20 °C. With `CC(C)(C)c1cc(C(C)(C)C)cc(C(C)(C)C)c1` the ready biodegradability was “not readily biodegradable”. Work on `CC(C)C(Br)C(=O)NC(N)=O` (stereo not given) yielded a melting point of 154 °C. Work on `O=C(O)Cc1ccccc1F` yielded a melting point of 63 °C. In the case of `CCC1(C2=CCCCCC2)C(=O)NC(=O)NC1=O`, the melting point is reported as 174 °C. `CNc1ccc2oc(C[C@@H]3OC4(CC[C@@H]3C)O[C@H](C(C)C(=O)c3ccc[nH]3)[C@H](C)C[C@H]4C)nc2c1C(=O)O` (stereo not given in full) showed a melting point of 182 °C. `Clc1cccc(Oc2ccc(Cl)cc2Cl)c1` showed a log10 vapour pressure (mmHg) of -3.74. In the case of `CSc1ccc(O)cc1`, the ready biodegradability is reported as “not readily biodegradable”. With `CC1(CCl)CO1` (stereo not given) the boiling point was 122 °C and the ready biodegradability was “not readily biodegradable”. With `C=CC/C=C/C/C=C/C/C=C/C` the ready biodegradability was “not readily biodegradable”. `CC(C)S(=O)(=O)n1c(N)nc2ccc(/C(=N/O)c3ccccc3)cc21` showed a melting point of 198 °C. `C=C(C)C1CC=C(C)CC1` (stereo not given) gave a boiling point of 176 °C, a log10 vapour pressure (mmHg) of 0.215 and a melting point of -86.4 °C. For the same compound, the ready biodegradability was “readily biodegradable”. In the case of `Cc1ccc(O)c(N=Nc2ccccc2)c1`, the melting point is reported as 108 °C. In the case of `COCCOCCOCCO`, the boiling point is reported as 249 °C, the melting point is reported as -44 °C and the ready biodegradability is reported as “readily biodegradable”. With `Cc1[nH]nc(Cl)c1[N+](=O)[O-]` the melting point was 111 °C. In the case of `O=C(O)C1C(c2ccccc2)C(C(=O)O)C1c1ccccc1` (stereo not given), the melting point is reported as 228 °C. Work on `CC1(C)[C@H](C(=O)O[C@H](C#N)c2cccc(Oc3ccccc3)c2)[C@@H]1/C=C(\Cl)C(F)(F)F` (single isomer, unassigned) yielded a melting point of 49.2 °C. In the case of `COc1ccc(CCl)cc1`, the boiling point is reported as 262 °C and the melting point is reported as 24.5 °C. Compound `O=C1CCCCCC1=O` has a melting point of -40 °C. Compound `C[n+]1cc2c3c(ccc2c2ccc4cc5c(cc4c21)OCO5)OCO3` has a melting point of 266 °C. With `Clc1cccc2cccnc12` the boiling point was 288 °C and the melting point was -20 °C. Compound `C=C(Br)CBr` has a boiling point of 141 °C and a log10 vapour pressure (mmHg) of 0.88. For `O=C(O)c1cc([N+](=O)[O-])cc([N+](=O)[O-])c1`, the log10 Koc (L/kg) was 1.53, the melting point was 205 °C and the ready biodegradability was “not readily biodegradable”. For `Oc1ccc2cccc(Cl)c2c1`, the boiling point was 308 °C and the melting point was 101 °C. Compound `C=CCSCC=C` has a boiling point of 139 °C, a log10 vapour pressure (mmHg) of 0.965 and a melting point of -85 °C. With `C=CCCCCCCCCCCCCCCCCCCCC` the boiling point was 367 °C and the melting point was 38 °C. With `CSC(=O)c1cccc2nnsc12` the boiling point was 267 °C, the log10 vapour pressure (mmHg) was -5.48 and the melting point was 133 °C. For `CC(CCCl)OCCCl` (stereo not given), the boiling point was 195 °C. `Nc1ccc(C(=O)NCC(=O)O)cc1` gave a melting point of 198 °C. Work on `CC(O)=S` yielded a boiling point of 93 °C. For `Cc1cc(C(C)(C)C)cc(C)c1CC1=NCCN1`, the melting point was 132 °C. Compound `CC(C)CS(=O)(=O)CC(C)C` has a boiling point of 265 °C and a melting point of 17 °C. `Cc1n[nH]c(=O)[nH]c1=O` showed a melting point of 211 °C. With `O=C(O)c1cccc2ccccc12` the ready biodegradability was “not readily biodegradable”. With `CNC.O=C(O)COc1ccc(Cl)cc1Cl` the log10 vapour pressure (mmHg) was -9 and the melting point was 86 °C.

Same assay, conditions: fish
Work on `C=Cc1ccc(C=C)cc1` yielded a log10 BCF of 2.48 and a log10 biotransformation half-life (days) of 0.5. Compound `Clc1ccc(-c2cccc(Cl)c2Cl)cc1Cl` has a log10 biotransformation half-life (days) of 2.47. For `CCCCCCCCCCc1ccccc1`, the log10 biotransformation half-life (days) was 0.63. `O=C(O)c1cccc([N+](=O)[O-])c1C(=O)O` showed a log10 BCF of 0.72 and a log10 biotransformation half-life (days) of -1.57. Work on `C[C@@H]1C[C@@H]([C@H](O)CC2CC(=O)NC(=O)C2)C(=O)[C@@H](C)C1` yielded a log10 BCF of 0.45. Work on `c1ccccc1` yielded a log10 BCF of 0.63. For `CCc1nn(C)c(C(=O)NCc2ccc(C(C)(C)C)cc2)c1Cl`, the log10 BCF was 1.15. `CC(C)(C)c1cc(C(C)(C)C)cc(C(C)(C)C)c1` showed a log10 BCF of 4.36 and a log10 biotransformation half-life (days) of 2.7.
